In patent US5274121A, “N-methyl-N-[4-(1-pyrrolidinyl)-2-butynyl]amide congeners as muscarinic agents” (priority 1992, dated 1993):
Read-outs that look alike come from different tables or passages of the source.

Key:
[1] = molecular target: T1, muscarinic receptors, SK-N-SH cell membranes (m4 AChR) (Homo sapiens, UniProt P20309); assay: Inhibition of [3H]-NMS binding to membranes from SK-N-SH cells; settings: SK-N-SH cells; conc. of compounds = 100 μM
T1 construct: membranes from SK-N-SH cells; endogenous in cells; host or cells: SK-N-SH human neuroblastoma cells (crude membrane fraction)
Excerpt: (§1) Compounds of the present invention were screened for their biological activity. Assay systems using SK-N-SH human neuroblastoma cells which express only m4 -AChRs coupled to PI turnover, and NG108-15 neuroblastoma x glioma cells which express only m3 AChRs coupled to adenylate cyclase inhibition were used.
(§2) Compounds of the present invention were also screened for their relative binding affinities. Assay systems which measured the inhibition of ^3 H-N-methylscopolamine (^3 H-NMS) binding to membranes from NG108-15 cells and membranes from SK-N-SH cells were used.
(§3) Inhibition of [^3 H]-NMS binding
(§4) Cells were grown to confluence, harvested, and a crude membrane fraction was obtained. […] The total volume was 1 mL. The incubation was terminated by rapid filtration over GF/B filters using a Brandel cell harvester. The filters were washed three times with ice-cold 0.9% NaCl, equilibrated in scintillation counting fluid and counted on a Beckman LS 5801 liquid scintillation counter at 47% efficiency. Non-specific binding was determined by coincubation with 1 μM atropine, and amounted to less than 15% of total counts. It was routinely subtracted from the total counts.

[2] = test system: NG108-15 neuroblastoma x glioma cells (m3 AChR); assay: Inhibition of PGE1-stimulated cAMP levels in NG108-15 cells; format: cell-based; settings: for inhibition at 100 µM: relative to control with no compounds added, conc. of compounds = 100 μM, read-out: cAMP Inhib; for agonist activity, in words: Table I assays
Description: Compounds of the present invention were tested for their binding affinities and activation of second messengers in selective muscarinic cholinergic receptor systems. It is believed that m1 -, m4 -, and m5 AChRs couple exclusively to PI turnover, whereas m2 - and m3 -AChRs couple only to adenylate cyclase inhibition.
as §1
Inhibition of PGE1 -stimulated cAMP levels in NG108-15 cells
Cells were plated in 24-well plates and were grown to 90% confluence. The growth media was then replaced with a solution of 1 mM IBMX in DMEM-Hepes (0.5 mL per well) and the cells were incubated for 10 min at 37° C. Agonists were then added at a final concentration of 100 μM, along with PGE1 (final conc, 5 μM), and the cells were incubated for a further 15 min at 37° C. The reaction Was terminated by aspirating the solution and adding 0.5 mL of 0.1N HCl. In order to extract the cAMP from the cells, they were incubated in 0.1 N HCl for 30 min at room temperature. An aliquot (35 50 μL) was removed, lyophilized, and assayed for cAMP by radioimmunoassay.

[3] = molecular target: T2, muscarinic receptors, NG108-15 cell membranes (m3 AChR) (Mus musculus, UniProt P32211); assay: Inhibition of [3H]-NMS binding to membranes from NG108-15 cells; settings: for inhibition at 100 µM: NG108-15 cells, conc. of compounds = 100 μM; for binding to muscarinic receptors, in words: 3H-NMS binding, NG108-15 and SK-N-SH membranes
T2 construct: membranes from NG108-15 cells; endogenous in cells; host or cells: NG108-15 neuroblastoma x glioma hybrid cells (crude membrane fraction)
T2 sequence (P32211 1-479): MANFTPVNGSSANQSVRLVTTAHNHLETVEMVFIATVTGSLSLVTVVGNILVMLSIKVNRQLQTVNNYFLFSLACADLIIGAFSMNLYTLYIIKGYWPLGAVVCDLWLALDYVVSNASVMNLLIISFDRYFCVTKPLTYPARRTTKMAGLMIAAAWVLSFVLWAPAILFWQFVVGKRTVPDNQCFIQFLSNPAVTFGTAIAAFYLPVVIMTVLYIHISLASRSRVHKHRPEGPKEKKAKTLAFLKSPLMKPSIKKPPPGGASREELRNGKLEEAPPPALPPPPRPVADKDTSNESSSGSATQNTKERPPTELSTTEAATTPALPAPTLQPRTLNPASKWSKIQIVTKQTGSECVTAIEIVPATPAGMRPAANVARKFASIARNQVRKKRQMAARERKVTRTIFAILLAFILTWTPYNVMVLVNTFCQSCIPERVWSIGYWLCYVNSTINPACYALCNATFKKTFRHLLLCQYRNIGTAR
Excerpt: as §1, §2, §3, §4

T1 sequence (P20309 whole entry): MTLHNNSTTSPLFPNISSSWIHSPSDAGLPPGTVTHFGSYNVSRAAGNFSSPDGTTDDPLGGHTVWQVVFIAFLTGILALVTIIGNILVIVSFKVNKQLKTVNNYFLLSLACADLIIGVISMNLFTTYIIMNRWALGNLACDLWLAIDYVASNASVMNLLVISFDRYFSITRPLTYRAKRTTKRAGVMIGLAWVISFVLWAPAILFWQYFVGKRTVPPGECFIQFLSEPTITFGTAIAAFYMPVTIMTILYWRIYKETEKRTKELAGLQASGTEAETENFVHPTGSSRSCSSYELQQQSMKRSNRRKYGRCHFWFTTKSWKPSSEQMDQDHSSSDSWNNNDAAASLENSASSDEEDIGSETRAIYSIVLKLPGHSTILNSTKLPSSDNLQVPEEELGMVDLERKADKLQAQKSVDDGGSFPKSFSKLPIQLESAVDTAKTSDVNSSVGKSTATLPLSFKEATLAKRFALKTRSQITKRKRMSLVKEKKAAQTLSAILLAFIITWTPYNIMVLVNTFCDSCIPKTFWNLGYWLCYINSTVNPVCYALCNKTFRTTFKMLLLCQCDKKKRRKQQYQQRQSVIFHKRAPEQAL

inhibition at 100 µM [1] | inhibition at 100 µM [3] | binding to muscarinic receptors, in words [3] | SMILES | inhibition at 100 µM ([2]; NG108-15 cells) | agonist activity, in words [2] | agonist activity in NG108-15 cells (cAMP inhibition), in words ([2]; NG108-15 cells) | inhibition at 100 µM ([2]; NG108-15, NG108-15 cells)
59.1 ± 0.8% | 50.4 ± 4.9% | – | CC(=O)NCCCCCCCC(=O)N(C)CC#CCN1CCCC1 [Compound 048] | 0% | – | – | –
92.1 ± 1% | 89 ± 2.5% | most active | CN(CC#CCN1CCCC1)C(=O)CCCCCCCNC(=O)OC(C)(C)C [Compound 043] | 0% | inactive as agonists | – | –
45.1 ± 2.5% | 36.3 ± 3.1% | – | CN(CC#CCN1CCCC1)C(=O)CCNC(=O)OC(C)(C)C [Compound 016] | 12.5 ± 2.7% | – | substantial activity | –
24.6 ± 3.1% | 20.4 ± 5.5% | – | CC(=O)NCCCCCCC(=O)N(C)CC#CCN1CCCC1 [Compound 049] | 6.9 ± 2.9% | – | – | –
39.1 ± 2.4% | 31.9 ± 0.9% | – | CN(CC#CCN1CCCC1)C(=O)CCCCCNC(=O)OC(C)(C)C [Compound 038] | 0% | – | – | –
40% | 5% | – | CN(CC#CCN1CCCC1)C(=O)CCCNC(=O)CNC(=O)OC(C)(C)C [Compound 052, N-Methyl-N-[4-(1-pyrrolidinyl)-2-butynyl]-5-(N-[2-(N-Boc-amino)ethanoyl]amino)butanamide] | 0% | – | – | –
32.1 ± 0.7% | 24.4 ± 2.5% | – | CN(CC#CCN1CCCC1)C(=O)CCCNC(=O)OC(C)(C)C [Compound 020] | 3.5 ± 1.7% | – | – | –
60% | 51% | – | CN(CC#CCN1CCCC1)C(=O)CCCCCNC(=O)CCNC(=O)OC(C)(C)C [Compound 051] | 0% | – | – | –
50% | 51% | – | CN(CC#CCN1CCCC1)C(=O)CCCCCNC(=O)CNC(=O)OC(C)(C)C [Compound 050] | 0% | – | – | –

The remaining lines, values behind:

SMILES | inhibition at 100 µM [1] | inhibition at 100 µM [3] | binding to muscarinic receptors, in words [3] | inhibition at 100 µM ([2]; NG108-15 cells) | agonist activity, in words [2] | agonist activity in NG108-15 cells (cAMP inhibition), in words ([2]; NG108-15 cells) | inhibition at 100 µM ([2]; NG108-15, NG108-15 cells)
CN(CC#CCN1CCCC1)C(=O)CCCCCCCN [Compound 046] | 93.7 ± 1.8% | 92.3 ± 3.2% | most active | 0% | inactive as agonists | – | –
CN(CC#CCN1CCCC1)C(=O)CNC(=O)OC(C)(C)C [Compound 006, N-Methyl-N-[4-(1-pyrrolidinyl)-2-butynyl]-2-(N-Boc-amino) acetamide] | 40 ± 2.1% | 32.6 ± 1.5% | – | 7 ± 2.9% | – | substantial activity | –
CN(CC#CCN1CCCC1)C(=O)CCCCCCN [Compound 047] | 81.9 ± 1% | 72.1 ± 2.7% | most active | – | inactive as agonists | – | 3 ± 1.2%
CC(=O)NCCC(=O)N(C)CC#CCN1CCCC1 [Compound 018] | 67.4 ± 3.3% | 67.7 ± 3.6% | – | – | – | – | 10.2 ± 4.8%
CN(CC#CCN1CCCC1)C(=O)CCCN [Compound 021] | 20 ± 1.5% | 12.1 ± 2.2% | – | – | – | – | 3.7 ± 2%
CN(CC#CCN1CCCC1)C(=O)CCCCN [Compound 036] | 34.4 ± 0.3% | 22.4 ± 3.2% | – | – | – | substantial activity | 15.8 ± 2.7%
CN(CC#CCN1CCCC1)C(=O)CCCCCN [Compound 039] | 55.6 ± 1.9% | 37.9 ± 3.2% | – | – | – | substantial activity | 14.3 ± 1%
CC(=O)NCCCCC(=O)N(C)CC#CCN1CCCC1 [Compound 040] | 29.4 ± 1% | 17.9 ± 7.9% | – | 5.2 ± 2.2% | – | – | –
CN(CC#CCN1CCCC1)C(=O)CCCCCCNC(=O)OC(C)(C)C [Compound 045] | 81.4 ± 2.4% | 77.9 ± 2.4% | most active | 0% | inactive as agonists | – | –
